Assay results reported in patent publication EP3389689B1, “ACTIVE INGREDIENTS FOR TOPICAL APPLICATION” (priority 2015, dated 2021).

Key:
ADAMTS2 = test: Gene-expression analysis (PCR) in normal human dermal fibroblasts; assay type: cell-based; conditions: peptide 0.01% in growth medium, timepoint 24hrs
Protocol: (§1) Normal human dermal fibroblasts at passage 7 from a donor were cultured in DMEM with L-glutamine 2mM, Penicillin 50U/ml-Streptomycin 50ug/ml and 10% FCS in a 5% CO2 atmosphere at 37°C. After equilibration of cell in 1% FCS for 24hrs the respective peptides H-(beta-Ala)-Pro-Dab-NH-benzyl [CAS 823202-99-9], respectively N-palmitoyl-Gly-His-Lys [147732-56-7] / N-palmitoyl-Gly-Gln-Pro-Arg [221227-05-0] (2:1) diluted in growth medium to a concentration of 0.01% were added and the cells were incubated for an additional 24hrs. At the end of incubation cells were washed in PBS and immediately frozen at -80°C. Total RNA was extracted using NucleoSpin RNA Plus kit (Macherey-Nagel) according to supplier's instructions. cDNA was synthesized by reverse transcription of total RNA using Transcriptor Reverse Transcriptase (Roche). PCR was performed on a LightCycler device (Roche Molecular Systems Inc.) according to manufacturer's instructions. Raw data were analyzed using Microsoft Excel.

LOXL2 = test: as above; assay type: cell-based; conditions: peptide 0.01% in growth medium, timepoint 24hrs
Protocol: as §1

PCOLCE = test: as above; assay type: cell-based; conditions: peptide 0.01% in growth medium, timepoint 24hrs
Protocol: as §1

PLOD3 = test: as above; assay type: cell-based; conditions: peptide 0.01% in growth medium, timepoint 24hrs
Protocol: as §1

[1] = tested on: genes involved in collagen fiber maturation; test: Gene-expression analysis, summary statement in words; assay type: cell-based, human; conditions: result in words; fibroblasts, 0.01%, 24hrs
Protocol: as §1

Substance: N-palmitoyl-Gly-His-Lys [147732-56-7] / N-palmitoyl-Gly-Gln-Pro-Arg [221227-05-0] (2:1)
- gene expression ADAMTS2 (ADAMTS2): 105%
- gene expression LOXL2 (LOXL2): 292%
- gene expression PCOLCE (PCOLCE): 94%
- gene expression PLOD3 (PLOD3): 163%
- up-regulation of genes involved in collagen fiber maturation [1]: only up-regulates LOXL2 and much less PLOD3
